# Results as given in PubChem BioAssay AID1845219 (Molecular Pharmacology Branch, DTP, NCI, 2023).
# Tested on: SYO-1 tumor spheroids, viability % test/control
# Experiment: Anticancer human tumor SYO-1 cell line growth inhibition;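 also: spheroids exposed to agents for 7 days before viability read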;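 as to viability, T/C: 100% = DMSO vehicle control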
# Conditions: spheroids with HUVEC and MSC; for IC50: curve of first compound; for viability, T/C: stronger effect = lower value
# Excerpt: Multicellular complex tumor spheroid response to DNA repair inhibitors in combination with DNA-damaging drugs
# This study explores the anticancer activities of DNA-damaging drugs and inhibitors of DNA damage repair, both as single agents and in combinations. Complex tumor spheroids comprised of malignant cells, endothelial cells and mesenchymal stem cells served as an in vitro model for human solid tumors. This model system incorporates physiologically relevant features and patient-derived or established malignant cell lines with clinically relevant genetic alterations from many tumor types. Twenty-six patient-derived or established malignant cell lines were evaluated representing sarcoma, melanoma, small cell lung cancer (SCLC), non-small cell lung cancer (NSCLC), as well as bladder, ovarian and pancreatic cancers. The concentration ranges selected for each drug and investigational agent were based upon clinically achievable concentrations if the clinical Cmax of the agent was known.
# Compounds. The drugs and compounds olaparib (NSC753686), talazoparib (NSC767125), berzosertib (NSC777718), elimusertib (NSC800525), nedisertib (NSC802822), VX-984 (NSC792969), AZD-1390 (NSC803789), temozolomide (NSC362856), topotecan (NSC609699), trabectedin (NSC813783), staurosporine (NSC755774), and gemcitabine (NSC613327) were obtained from the National Cancer Institute (NCI) Developmental Therapeutics Program Chemical Repository. The FDA-approved anticancer drug set is available from the Developmental Therapeutics Program at https://dtp.cancer.gov/organization/dscb/obtaining/available_plates.htm. […] The stock solutions were prepared in dimethyl sulfoxide (DMSO, Sigma-Aldrich, St. Louis, MO, cat. D2650) at 400-fold the tested concentration and stored at -70 degrees C. Prior to their use, the stock solutions were diluted in fresh medium and the final DMSO concentration in the assay was 0.25% (v/v). All drugs and investigational agents were tested over a range starting from a high concentration at or near the clinical Cmax and decreasing in half-log increments. If the clinical Cmax for an agent had not been determined, the highest concentration tested was 10 microM.
# Cell Lines. The patient-derived cancer cell (PDC) lines: 156681-154-R-J1-PDC, 283228-195-R-J1-PDC, 287954-098-R-J1-PDC, 292921-168-R-J2-PDC, 349418-098-R-PDC, 425362-245-T-J1-PDC, 556581-035-R-J1-PDC, and BL0293-F563-PDC were received from the NCI Patient-Derived Models Repository (PDMR, https://pdmr.cancer.gov). The established cell lines HS-SY-2 (RRID:CVCL_8719), MPNST, and SYO-1 (RRID:CVCL_7146) were obtained from the Sloan Kettering Institute. The alveolar soft parts sarcoma cell line ASPS-1 (RRID:CVCL_S738) was established at the NCI and grown from internal seed stocks. The following established cell lines were purchased from the American Type Culture Collection (ATCC, Manassas, VA): G-401 (ATCC, cat. CRL-1441, RRID:CVCL_0270), SW982 (ATCC, cat. HTB-93, RRID:CVCL_1734), VA-ES-BJ (ATCC, cat. CRL-2138, RRID:CVCL_1785), NCI-H719 (ATCC, cat. CRL-5837, RRID:CVCL_1582), NCI-H196 (ATCC, cat. CRL-5823, RRID:CVCL_1509), NCI-H841 (ATCC, cat. CRL-5845, RRID:CVCL_1595), NCI-H1618 (ATCC, cat. CRL-5879, RRID:CVCL_1480), NCI-H1876 (ATCC, cat. CRL-5902, RRID:CVCL_1503), DMS 114 (ATCC, cat. CRL-2066; RRID:CVCL_1174), NCI-H211 (ATCC, cat. CRL-5824; RRID:CVCL_1529), and SW 1271 (ATCC, cat. CRL-2177, RRID:CVCL_1716). The small cell lung cancer cell line COR-L88 was purchased from Sigma-Aldrich (cat. 92031917-1VL, RRID:CVCL_1141). The non-small cell lung cancer cell lines NCI-H226 (RRID:CVCL_1544) and NCI-H322M (RRID:CVCL_1557) were established at the NCI and grown from internal seed stocks. Pooled donor human umbilical vein endothelial cells (HUVEC, Lonza, cat. CC-2519) and human mesenchymal stem cells (hMSC, Lonza, cat. PT-2501) were purchased from Lonza (Walkersville, MD).
# Cell Culture. All cells were maintained in an incubator at 37 degrees C and 5% CO2 with 95% humidity. […]
# [1] = second compound 0.003 µM, first compound 0.00949 µM
# [2] = second compound 0.003 µM, first compound 0.03 µM
# [3] = second compound 0.003 µM, first compound 0.0949 µM
# [4] = second compound 0.003 µM, first compound 0.3 µM
# [5] = second compound 0.003 µM, first compound 0.949 µM
# [6] = second compound 0.003 µM, first compound 3 µM
# [7] = second compound 0.00949 µM, first compound 0.00949 µM
# [8] = second compound 0.00949 µM, first compound 0.03 µM
# [9] = second compound 0.00949 µM, first compound 0.0949 µM
# [10] = second compound 0.00949 µM, first compound 0.3 µM
# [11] = second compound 0.00949 µM, first compound 0.949 µM
# [12] = second compound 0.00949 µM, first compound 3 µM
# [13] = second compound 0.03 µM, first compound 0.00949 µM
# [14] = second compound 0.03 µM, first compound 0.03 µM
# [15] = second compound 0.03 µM, first compound 0.0949 µM
# [16] = second compound 0.03 µM, first compound 0.3 µM
# [17] = second compound 0.03 µM, first compound 0.949 µM
# [18] = second compound 0.03 µM, first compound 3 µM
# [19] = second compound 0.0949 µM, first compound 0.00949 µM
# [20] = second compound 0.0949 µM, first compound 0.03 µM
# [21] = second compound 0.0949 µM, first compound 0.0949 µM
# [22] = second compound 0.0949 µM, first compound 0.3 µM
# [23] = second compound 0.0949 µM, first compound 0.949 µM
# [24] = second compound 0.0949 µM, first compound 3 µM
# [25] = second compound 0.3 µM, first compound 0.00949 µM
# [26] = second compound 0.3 µM, first compound 0.03 µM
# [27] = second compound 0.3 µM, first compound 0.0949 µM
# [28] = second compound 0.3 µM, first compound 0.3 µM
# [29] = second compound 0.3 µM, first compound 0.949 µM
# [30] = second compound 0.3 µM, first compound 3 µM
Structure (SMILES),IC50 (second compound 0.003 µM) [nM],IC50 (second compound 0.00949 µM) [nM],IC50 (second compound 0.03 µM) [nM],IC50 (second compound 0.0949 µM) [nM],IC50 (second compound 0.3 µM) [nM],"viability, T/C [3] [%]","viability, T/C [4] [%]","viability, T/C [5] [%]","viability, T/C [6] [%]","viability, T/C [9] [%]","viability, T/C [10] [%]","viability, T/C [11] [%]","viability, T/C [12] [%]","viability, T/C [15] [%]","viability, T/C [16] [%]","viability, T/C [17] [%]","viability, T/C [18] [%]","viability, T/C [21] [%]","viability, T/C [22] [%]","viability, T/C [23] [%]",other results
CNCc1ccc(-c2cc(-c3nc(-c4ccc(S(=O)(=O)C(C)C)cc4)cnc3N)on2)cc1 + CC[C@@]1(O)C(=O)OCc2c1cc1n(c2=O)Cc2cc3c(CN(C)C)c(O)ccc3nc2-1,24.5,< 9.49,< 9.49,< 9.49,< 9.49,3.75,2.18,0.36,0.11,2.57,1.53,0.14,0.09,2.63,2.32,0.17,0.1,2.21,1.43,0.17,"viability, T/C [1]: 85.4%; viability, T/C [2]: 42.5%; viability, T/C [7]: 4.64%; viability, T/C [8]: 3.26%; viability, T/C [13]: 1.95%; viability, T/C [14]: 2.01%; viability, T/C [19]: 1.79%; viability, T/C [20]: 1.82%; viability, T/C [24]: 0.11%; viability, T/C [25]: 1.93%; viability, T/C [26]: 1.65%; viability, T/C [27]: 1.95%; viability, T/C [28]: 1.63%; viability, T/C [29]: 0.24%; viability, T/C [30]: 0.17%"
Cn1ncnc1[C@H]1c2n[nH]c(=O)c3cc(F)cc(c23)N[C@@H]1c1ccc(F)cc1 + CC[C@@]1(O)C(=O)OCc2c1cc1n(c2=O)Cc2cc3c(CN(C)C)c(O)ccc3nc2-1,< 9.49,< 9.49,< 9.49,< 9.49,< 9.49,1.89,1.63,1.45,1.47,1.68,1.41,1.63,1.37,1.7,1.53,1.32,1.28,1.72,1.66,1.34,"viability, T/C [1]: 3.29%; viability, T/C [2]: 2.24%; viability, T/C [7]: 1.7%; viability, T/C [8]: 1.69%; viability, T/C [13]: 1.69%; viability, T/C [14]: 1.49%; viability, T/C [19]: 1.59%; viability, T/C [20]: 1.89%; viability, T/C [24]: 1.13%; viability, T/C [25]: 1.71%; viability, T/C [26]: 1.64%; viability, T/C [27]: 1.52%; viability, T/C [28]: 1.37%; viability, T/C [29]: 1.3%; viability, T/C [30]: 1.04%"
O=C(c1cc(Cc2n[nH]c(=O)c3ccccc23)ccc1F)N1CCN(C(=O)C2CC2)CC1 + CC[C@@]1(O)C(=O)OCc2c1cc1n(c2=O)Cc2cc3c(CN(C)C)c(O)ccc3nc2-1,< 94.9,< 94.9,< 94.9,< 94.9,< 94.9,40.5,24.1,8.02,2.93,2.56,2.35,2.18,1.79,1.56,1.76,1.49,1.64,1.91,1.81,1.99,"viability, T/C (second compound 0.003 µM, first compound 9.49 µM): 2.62%; viability, T/C (second compound 0.003 µM, first compound 30 µM): 2.56%; viability, T/C (second compound 0.00949 µM, first compound 9.49 µM): 2.63%; viability, T/C (second compound 0.00949 µM, first compound 30 µM): 2.34%; viability, T/C (second compound 0.03 µM, first compound 9.49 µM): 1.62%; viability, T/C (second compound 0.03 µM, first compound 30 µM): 1.56%; viability, T/C [24]: 1.8%; viability, T/C (second compound 0.0949 µM, first compound 9.49 µM): 1.74%; viability, T/C (second compound 0.0949 µM, first compound 30 µM): 1.82%; viability, T/C [27]: 2.04%; viability, T/C [28]: 1.92%; viability, T/C [29]: 2.02%; viability, T/C [30]: 1.92%; viability, T/C (second compound 0.3 µM, first compound 9.49 µM): 1.99%; viability, T/C (second compound 0.3 µM, first compound 30 µM): 2.21%"
